Several values for one entry are separate records, joined by “and”; a condition that tells them apart may be missing. Identical values can stand only once. Toxic doses and inconclusive results are not listed.
System: L1210 leukemia ip in BDF1 mice, survival T/C
Assay: NCI In Vivo Anticancer Drug Screen. Data for tumor model L1210 Leukemia (intraperitoneal) in B6D2F1 (BDF1) mice
Details: endpoint: mean survival time, higher = longer survival
Procedure, shortened: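 Read-out is survival time, reported as the treated-group measurement over the vehicle-control measurement.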

[1] = dose: 100.0 mg/kg/injection, schedule: Q01DX001 (ip), vehicle: saline
[2] = dose: 200.0 mg/kg/injection, schedule: Q01DX001 (ip), vehicle: saline
[3] = dose: 400.0 mg/kg/injection, schedule: Q01DX001 (ip), vehicle: saline
[4] = dose: 50.0 mg/kg/injection, schedule: Q01DX009 (ip), vehicle: saline with Tween-80
[5] = dose: 100.0 mg/kg/injection, schedule: Q01DX009 (ip), vehicle: saline with Tween-80
[6] = dose: 100.0 mg/kg/injection, schedule: Q04DX003 (ip), vehicle: saline with Tween-80
[7] = dose: 12.5 mg/kg/injection, schedule: Q04DX003 (ip), vehicle: Klucel (hydroxypropylcellulose) (HPC)
[8] = dose: 25.0 mg/kg/injection, schedule: Q04DX003 (ip), vehicle: Klucel (hydroxypropylcellulose) (HPC)
[9] = dose: 25.0 mg/kg/injection, schedule: Q01DX009 (ip), vehicle: Klucel (hydroxypropylcellulose) (HPC)
[10] = dose: 100.0 mg/kg/injection, schedule: Q01DX009 (ip), vehicle: Klucel (hydroxypropylcellulose) (HPC)
[11] = dose: 100.0 mg/kg/injection, schedule: Q01DX001 (ip), vehicle: saline with Tween-80
[12] = dose: 50.0 mg/kg/injection, schedule: Q01DX001 (ip), vehicle: saline
[13] = dose: 100.0 mg/kg/injection, schedule: Q04DX003 (ip), vehicle: Klucel (hydroxypropylcellulose) (HPC)
[14] = dose: 200.0 mg/kg/injection, schedule: Q04DX003 (ip), vehicle: Klucel (hydroxypropylcellulose) (HPC)
[15] = dose: 200.0 mg/kg/injection, schedule: Q01DX009 (ip), vehicle: Klucel (hydroxypropylcellulose) (HPC)
[16] = dose: 400.0 mg/kg/injection, schedule: Q01DX009 (ip), vehicle: Klucel (hydroxypropylcellulose) (HPC)
[17] = dose: 400.0 mg/kg/injection, schedule: Q04DX003 (ip), vehicle: Klucel (hydroxypropylcellulose) (HPC)
[18] = dose: 100.0 mg/kg/injection, schedule: Q04DX003 (ip), vehicle: saline
[19] = dose: 200.0 mg/kg/injection, schedule: Q04DX003 (ip), vehicle: saline
[20] = dose: 400.0 mg/kg/injection, schedule: Q04DX003 (ip), vehicle: saline

Q: For COc1ccc(C(=S)N2CCN(c3ccc(Cl)cc3)CC2)cc1, which T/C [1] is on record?
A: 95 % of control

Q: And the T/C [2]?
A: 95 % of control

Q: And the T/C [3]?
A: 95 % of control

Q: Which results are given for COc1ccc(CCNC(=O)Cc2ccccc2)cc1OC?
A: T/C [4]: 90 % of control; T/C [5]: 93 % of control; T/C [6]: 92 % of control; T/C (dose: 200.0 mg/kg/injection, schedule: Q01DX009 (ip), vehicle: saline with Tween-80): 94 % of control and 96 % of control; T/C (dose: 200.0 mg/kg/injection, schedule: Q04DX003 (ip), vehicle: saline with Tween-80): 92 % of control; T/C (dose: 400.0 mg/kg/injection, schedule: Q01DX009 (ip), vehicle: saline with Tween-80): 99 % of control

Q: For O=[As](O)(O)CCc1ccccc1, which T/C [7] is on record?
A: 101 % of control

Q: And the T/C [8]?
A: 108 % of control

Q: What does the source list for CC1=C/C(O)CC(=O)Cc2nc(co2)C(=O)N2CCC=C2C(=O)OC(C(C)C)C(C)/C=C\C(=O)NC/C=C\1 (stereo not drawn)?
A: T/C (dose: 0.5 micrograms/kg/injection, schedule: Q01DX009 (ip), vehicle: saline): 95 % of control; T/C (dose: 1.0 micrograms/kg/injection, schedule: Q01DX009 (ip), vehicle: saline): 93 % of control; T/C (dose: 2.0 micrograms/kg/injection, schedule: Q01DX009 (ip), vehicle: saline): 104 % of control; T/C (dose: 4.0 micrograms/kg/injection, schedule: Q01DX009 (ip), vehicle: saline): 104 % of control

Q: With CC(=O)Nc1ccc(OC(=O)Nc2c(C)cccc2Cl)cc1 as the compound, how does the T/C [9] read?
A: 101 % of control

Q: What about the T/C (dose: 50.0 mg/kg/injection, schedule: Q01DX009 (ip), vehicle: Klucel (hydroxypropylcellulose) (HPC)) of the same compound?
A: 95 % of control

Q: And the T/C [10]?
A: 94 % of control and 101 % of control

Q: Which T/C [4] does the source give for Cc1nc(N(C)C)c2cnn(-c3ccccc3)c2n1 here?
A: 106 % of control

Q: And the T/C (dose: 100.0 mg/kg/injection, schedule: Q01DX001 (ip), vehicle: acetone)?
A: 101 % of control

Q: What about the T/C [5] of the same compound?
A: 87 % of control

Q: And the T/C (dose: 200.0 mg/kg/injection, schedule: Q01DX001 (ip), vehicle: acetone)?
A: 97 % of control

Q: What does the source list for c1ccc(SCC2C3CSC4C3CC2C4Sc2ccccc2)cc1 (stereo not drawn)?
A: T/C [11]: 98 % of control; T/C (dose: 200.0 mg/kg/injection, schedule: Q01DX001 (ip), vehicle: saline with Tween-80): 105 % of control; T/C (dose: 400.0 mg/kg/injection, schedule: Q01DX001 (ip), vehicle: saline with Tween-80): 94 % of control

Q: Which results are given for C1CSCSC1?
A: T/C (dose: 12.5 mg/kg/injection, schedule: Q01DX009 (ip), vehicle: Klucel (hydroxypropylcellulose) (HPC)): 100 % of control; T/C [7]: 101 % of control; T/C [9]: 95 % of control; T/C [8]: 97 % of control; T/C (dose: 50.0 mg/kg/injection, schedule: Q04DX003 (ip), vehicle: Klucel (hydroxypropylcellulose) (HPC)): 100 % of control

Q: With O=C(CSCC(=O)c1ccc(Br)cc1)c1ccc(Br)cc1 as the compound, how does the T/C (dose: 100.0 mg/kg/injection, schedule: Q04DX003 (ip), vehicle: other) read?
A: 101 % of control

Q: And the T/C (dose: 200.0 mg/kg/injection, schedule: Q04DX003 (ip), vehicle: other)?
A: 93 % of control

Q: And the T/C (dose: 400.0 mg/kg/injection, schedule: Q04DX003 (ip), vehicle: other)?
A: 86 % of control

Q: With CCOc1ccc(C(=N)N2CCN(C)CC2)c2ccccc12 as the compound, how does the T/C (dose: 4.2 mg/kg/injection, schedule: Q01DX Z (ip), vehicle: methylcellulose (MC)) read?
A: 104 % of control

Q: What about the T/C (dose: 6.3 mg/kg/injection, schedule: Q01DX Z (ip), vehicle: methylcellulose (MC)) of the same compound?
A: 103 % of control

Q: And the T/C (dose: 9.5 mg/kg/injection, schedule: Q01DX Z (ip), vehicle: methylcellulose (MC))?
A: 97 % of control

Q: What about the T/C (dose: 14.3 mg/kg/injection, schedule: Q01DX Z (ip), vehicle: methylcellulose (MC)) of the same compound?
A: 106 % of control

Q: For C=COC(=O)Sc1c(Cl)c(Cl)c(Cl)c(Cl)c1Cl, which T/C [12] is on record?
A: 100 % of control

Q: What about the T/C [1] of the same compound?
A: 97 % of control

Q: And the T/C [2]?
A: 103 % of control

Q: What about the T/C [3] of the same compound?
A: 92 % of control

Q: With COC(=O)C1C2c3ccccc3C(C1C(=O)OC)[n+]1ccccc12 (stereo not drawn) as the compound, how does the T/C [13] read?
A: 95 % of control

Q: What about the T/C [14] of the same compound?
A: 98 % of control

Q: For Cc1cc[n+](Cc2cc3ccccc3[nH]c2=O)cc1, which T/C (dose: 12.5 mg/kg/injection, schedule: Q01DX001 (ip), vehicle: saline) is on record?
A: 96 % of control

Q: What about the T/C (dose: 25.0 mg/kg/injection, schedule: Q01DX001 (ip), vehicle: saline) of the same compound?
A: 100 % of control

Q: What about the T/C [12] of the same compound?
A: 95 % of control

Q: With C/C=C\C(=O)N(CC)C(=NCC)c1ccc(NC(=O)c2ccc(C(=O)Nc3ccc(C(=NCC)N(CC)C(=O)/C=C/C)cc3)cc2)cc1 as the compound, how does the T/C (dose: 0.56 mg/kg/injection, schedule: Q01DX015 (ip), vehicle: methylcellulose (MC)) read?
A: 104 % of control

Q: What about the T/C (dose: 1.12 mg/kg/injection, schedule: Q01DX015 (ip), vehicle: methylcellulose (MC)) of the same compound?
A: 112 % of control

Q: And the T/C (dose: 2.25 mg/kg/injection, schedule: Q01DX015 (ip), vehicle: methylcellulose (MC))?
A: 116 % of control

Q: And the T/C (dose: 4.5 mg/kg/injection, schedule: Q01DX015 (ip), vehicle: methylcellulose (MC))?
A: 172 % of control

Q: What about the T/C (dose: 6.25 mg/kg/injection, schedule: Q01DX015 (ip), vehicle: methylcellulose (MC)) of the same compound?
A: 164 % of control

Q: What does the source list for COC1OC2CSC(=S)OC2C(OC)C1OC (stereo not drawn)?
A: T/C (dose: 25.0 mg/kg/injection, schedule: Q04DX002 (ip), vehicle: saline): 100 % of control; T/C (dose: 50.0 mg/kg/injection, schedule: Q04DX002 (ip), vehicle: saline): 92 % of control; T/C (dose: 100.0 mg/kg/injection, schedule: Q04DX002 (ip), vehicle: saline): 103 % of control; T/C (dose: 200.0 mg/kg/injection, schedule: Q04DX002 (ip), vehicle: saline): 102 % of control; T/C (dose: 400.0 mg/kg/injection, schedule: Q04DX002 (ip), vehicle: saline): 102 % of control

Q: How did the T/C [1] turn out when O=S(=O)(Nc1ccccc1)c1ccc([As](=O)(O)O)cc1 was run?
A: 103 % of control

Q: How did the T/C (dose: 0.5 mg/kg/injection, schedule: Q01DX001 (ip), vehicle: saline) turn out when C[N+]1(CCCNC2=CC(=O)C(NCCC[N+]3(C)CCCCC3)=CC2=O)CCCCC1 was run?
A: 105 % of control

Q: What does the source list for c1ccc(CN=C(c2ccccc2)c2ccccc2)cc1?
A: T/C [10]: 101 % of control; T/C [13]: 104 % of control; T/C [15]: 95 % of control; T/C [14]: 96 % of control; T/C [16]: 106 % of control; T/C [17]: 98 % of control

Q: CCCC(C(=O)O)C(O)(CC(=O)O)C(=O)O (stereo not drawn) was tested. Which T/C [18] did it give?
A: 101 % of control

Q: What about the T/C [19] of the same compound?
A: 101 % of control

Q: What about the T/C [20] of the same compound?
A: 95 % of control

Q: Which results are given for O=C(CN1C(=O)c2ccccc2C1=O)OC(c1ccccc1)c1ccccc1?
A: T/C [10]: 102 % of control; T/C [13]: 98 % of control; T/C [15]: 104 % of control; T/C [14]: 96 % of control; T/C [16]: 104 % of control; T/C [17]: 96 % of control

Q: Which T/C [10] does the source give for CCOC(=O)c1c(C)[nH]c(-c2ccccc2)c1C here?
A: 109 % of control

Q: What about the T/C [13] of the same compound?
A: 102 % of control

Q: And the T/C [15]?
A: 97 % of control

Q: And the T/C [14]?
A: 100 % of control

Q: And the T/C [16]?
A: 95 % of control

Q: What about the T/C [17] of the same compound?
A: 94 % of control

Q: For [N-]=[N+]=NCc1nnc2ncnc(N)c2n1, which T/C (dose: 25.0 mg/kg/injection, schedule: Q01DX009 (ip), vehicle: saline with Tween-80) is on record?
A: 88 % of control

Q: And the T/C (dose: 25.0 mg/kg/injection, schedule: Q04DX003 (ip), vehicle: saline with Tween-80)?
A: 94 % of control

Q: And the T/C (dose: 50.0 mg/kg/injection, schedule: Q04DX003 (ip), vehicle: saline with Tween-80)?
A: 105 % of control

Q: And the T/C [11]?
A: 95 % of control

Q: And the T/C [6]?
A: 102 % of control

Q: For CSC1SCCCS1, which T/C (dose: 12.5 mg/kg/injection, schedule: Q04DX002 (ip), vehicle: saline with Tween-80) is on record?
A: 92 % of control

Q: And the T/C (dose: 25.0 mg/kg/injection, schedule: Q04DX002 (ip), vehicle: saline with Tween-80)?
A: 98 % of control

Q: What about the T/C (dose: 50.0 mg/kg/injection, schedule: Q04DX002 (ip), vehicle: saline with Tween-80) of the same compound?
A: 88 % of control

Q: With c1cc(B2OCCNCCO2)ccc1B1OCCNCCO1 as the compound, how does the T/C [13] read?
A: 103 % of control

Q: What about the T/C [14] of the same compound?
A: 98 % of control

Q: And the T/C [17]?
A: 104 % of control

Q: CCOC(=O)/C(O)=C\c1cc(Br)c(OC)cc1[N+](=O)[O-] was tested. Which T/C [1] did it give?
A: 102 % of control

Q: And the T/C [18]?
A: 98 % of control

Q: And the T/C [2]?
A: 107 % of control

Q: And the T/C [19]?
A: 98 % of control

Q: And the T/C [3]?
A: 95 % of control

Q: What about the T/C [20] of the same compound?
A: 95 % of control

Q: CCCCCCCCCNC(C)=O was tested. Which T/C [10] did it give?
A: 97 % of control

Q: And the T/C [15]?
A: 92 % of control
